These results are taken from paper PMC10892288, “Early Stage Preclinical Formulation Strategies to Alter the Pharmacokinetic Profile of Two Small Molecule Therapeutics” (Pharmaceuticals, 2024).

Data set [1] is described as follows: Body weight change in multiday IP study. Format: in vivo. The following applies: IP 150 mpk BID, study spanning over 10 days, mice.
A short description of data set [2]: Mouse PK of G7883, SC in sunflower oil. Format: in vivo. The procedure: was screened in different oil vehicles including corn, coconut, paraffin, soybean, and sunflower oil. […] For subcutaneous administrations, […] was formulated in sunflower oil as a suspension and dosed at 250 mg/kg with a dosing volume of 5 mL/kg. Food and water were available ad libitum to animals. Blood samples were collected post-dose into tubes containing K2EDTA as an anticoagulant. Samples were taken from three different animals at each time point. After the blood was mixed with K2EDTA, the samples were stored at -80 °C until analysis. All plasma and cell media concentrations of […] and […] were determined using liquid chromatography-tandem mass spectrometry after protein precipitation with acetonitrile and injection of the supernatant onto the column (Waters ACQUITY UPLC BEH C18 1.7 μm, 2.1 × 50 mm for […] and […]). The aqueous mobile phase was 0.1% formic acid, 2 mM ammonium formate in water/acetonitrile (v:v, 95:5), and the organic mobile phase was 0.1% formic acid, 2 mM ammonium formate in acetonitrile/water (v:v, 95:5). An AB Sciex API 4000 Triple Quad instrument was used for detecting […] and […] (Figure S2). The electrospray ionization source in both columns was operated in the positive ion and multiple reaction monitoring (MRM) detection modes. The MRM transitions for […] and […] were m/z 462.2 (Q1) and 253.10 (Q3) and m/z 454.2 (Q1) and 325.9 (Q3), respectively. The dynamic range of both assays was 0.50-50.0 ng/mL, and the total run time was 1.6 min. The lower limit of quantitation of the assay was […], and the dilution quality control concentration was set at 10 ng/mL with acceptance criteria for accuracy and precision of 25%. All plasma and cell media concentrations of […] were determined using liquid chromatography-tandem mass spectrometry after protein precipitation with acetonitrile and injection of the supernatant onto the column (Phenomenex Kinetex XB-C18, 30 × 2.1 mm, 2.6 μm). The aqueous mobile phase was 10 mM of ammonium formate in water, and the organic mobile phase was 0.1% formic acid in acetonitrile. An AB Sciex API 5500 Triple Quad instrument was used for detecting […]. The electrospray ionization source in both columns was operated in the positive ion and MRM detection modes. The MRM transitions for […] were m/z 462.2 (Q1) and 253.10 (Q3), respectively. The dynamic range of the assay was 0.50-50.0 ng/mL, and the total run time was 2 min. The lower limit of quantitation of the assay was […], and the dilution quality control concentration was set at 10 ng/mL with acceptance criteria for accuracy and precision of 25%.

Data set [3] is described as follows: Vehicle screening for solution or suspension formulations. Format: physicochemical. The procedure:
Based on the target concentration, G7883 was screened at 3.3 mg/mL in three different vehicles of 100%PEG400, 10%DMSO in 90%PEG400, and 20%DMSO in 80%PEG400 to generate a stable solution. […] A total of 50% DMSO is the maximum amount compatible with the iPRECIO pump system. Based on the target concentration, G6893 was screened at 5 mg/mL in four different vehicles as follows: 100% PEG400, 20% DMSO in 80% PEG400, 20% DMA and 40% PG in 40% PEG400, and 10% EtOH and 20% HPbCD in 70% water at pH 4.5. G6893 achieved a solution at the target concentration of 5 mg/mL in 100% PEG400 and maintained a solution without precipitation after dilution in PBS buffer.
G7883 was screened in different oil vehicles including corn, coconut, paraffin, soybean, and sunflower oil.

The mark [4] stands for this setting: SC 250 mpk sunflower oil compared with PO 250 mpk.
Setting [5] is: plasma, 250 mg/kg, SC 250 mpk, sunflower oil suspension, mean ± SD.

With `Cc1nccnc1-c1nn2c(=O)cc(-c3ccc(C4CCCCC4)cc3)[nH]c2c1C(=O)N1CC(CF)C1` [G7883, 5-(4-cyclohexylphenyl)-3-[3-(fluoromethyl)azetidine-1-carbonyl]-2-(3-methylpyrazin-2-yl)-4H-pyrazolo[1,5-a]pyrimidin-7-one], the body weight change result in data set [1] is recorded as “significant decreases in the body weights of mice were observed”. Further, the “reduction of Cmax, SC versus IP” value in data set [2] (SC 250 mpk compared with IP 150 mpk) is “approximately 4 fold”. Moreover, in data set [2] (setting [4]), the “half-life extension, SC versus PO” value came out at 2.5 fold and the “increase of AUC, SC oil formulation versus oral” value is “more than 5 fold”. In data set [2] (SC 250 mpk, sunflower oil suspension, mean ± SD, 250 mg/kg), this compound had an F of 46.4 ± 13.2%. In data set [2] (setting [5]), the exposure AUC(0-t) (as a rule, the area under the concentration-time curve up to a stated or last time point) was found to be 137 ± 51.1 µM·h; the concentration peaked (Cmax) at 16.7 ± 12 µM; the Tmax (as a rule, the time at which the peak concentration occurs) came out at 2.67 ± 1.15 h; the half-life (as a rule, the time in which the quantity being followed falls by half) is 6.94 ± 2.93 h. Also, in data set [2] (plasma, sc, 250 mg/kg, SC 250 mpk, sunflower oil suspension, mean ± SD), the bioavailability (usually dose-corrected exposure relative to a reference, in per cent) stood at 46%. In data set [3] (20%DMSO in 80%PEG400), the “concentration at which a solution was achieved” value was no less than 3300 µg/mL. Also, the “solubility in oil vehicle (in words)” value in data set [3] (sunflower oil) is “moderate solubility”.
